What all share (assay): NCI tumour cell line growth inhibition, 48 h
The subject of test [1] is A498 renal.
For test [2], the system named is NCI-H23 lung.
Test [3] deals with SF-268 CNS.
For test [4], the system named is CAKI-1 renal.
The subject of test [5] is 786-0 renal.
In test [6] the test system is SK-MEL-5 melanoma.
Test [7] has as its system SNB-19 CNS.
The subject of test [8] is RPMI-8226 leukemia.
Test [9] relates to CCRF-CEM leukemia.
For test [10], the system named is IGROV1 ovarian.

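Growth conditions: 96-well plates. Treatment: test compound, 48 hours, 5 concentrations. Analysis: linear interpolation between bracketing concentrations; unreached endpoints set to highest concentration. GI50 = concentration required for 50% inhibition of growth. TGI: concentration producing complete growth inhibition.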

With `NCCN1C(=O)c2ccccc2C1(O)c1ccc(Cl)cc1` (stereo not given), the TGI in [1] is 27.8 µM; in test [2] it was more than 100 µM; in test [3], 57.1 µM; in test [4] it was more than 100 µM; in test [5], 30.9 µM; in test [6], 31.3 µM. Also, the TGI in [7] stood at 61 µM; in test [8], 39.7 µM; in [9], 57 µM; in [10], 41 µM.

`Cc1ccc(C)c2c(N=Nc3ccccc3[N+](=O)[O-])c(O)[nH]c12`: the TGI in [1], in test [2], in test [3], in test [4], in test [5] and in test [6] was more than 100 µM throughout. Besides, the TGI in test [7], in [8], in test [9] and in [10] was more than 100 µM throughout.

`Cc1ccc(C(=O)N=Nc2c(O)[nH]c3ccc(Cl)cc23)cc1`: the GI50 in test [1] is 35.3 µM; in [2], 16.9 µM; in [3], 25.4 µM; in [4] it was 16.1 µM; in [5], more than 50 µM; in [6] it was 23.7 µM. The GI50 is 45.6 µM in [7], 5.74 µM in [8], 0.322 µM in test [9] and 36.6 µM in [10]. Further, the TGI was more than 50 µM in test [1]; more than 50 µM in test [2]; more than 50 µM in test [3]; 45.3 µM in test [4]; more than 50 µM in test [5]; more than 50 µM in test [6]. The TGI in [7], in test [8], in test [9] and in [10] was more than 50 µM in each case.

Take `COC(=O)/C(=C\c1c(-c2ccccc2)[nH]c2ccccc12)S(C)(=O)=O`: the GI50 is 6.56 µM in test [1]; 7.95 µM in test [2]; 4.32 µM in test [3]; 1.83 µM in [4]; 7.46 µM in [5]; 8.68 µM in test [7]. The figures for the GI50 in test [8], in [9] and in [10] were 6.15 µM, 7.62 µM and 1.67 µM, respectively. In addition, the TGI in test [1] is 21.3 µM; in [2], 41.8 µM; in test [3] it was 18.3 µM; in [4], 82.6 µM; in test [5], 23.9 µM; in [7], more than 100 µM. Moreover, the TGI in test [8] was 96.4 µM; in test [9], more than 100 µM; in test [10], 9.17 µM.

For the compound `CNC(=O)c1cc2c(Oc3ccc(NC(=S)NC(=O)Cc4ccccc4)cc3F)ccnc2cc1OC`, the GI50 in [1] was 1.1 µM; in [2], 3.13 µM; in [3], 4.51 µM; in test [4] it was 4.23 µM; in [5], 5.75 µM; in test [6], more than 20.6 µM. Moreover, the GI50 in test [7] was more than 100 µM; in [8] it was more than 28.3 µM; in [9], more than 29.9 µM; in [10] it was 5.96 µM. Moreover, the TGI in test [1] is 4.35 µM; in test [2], more than 100 µM; in test [3], more than 100 µM; in test [4], more than 100 µM; in test [5], more than 100 µM; in [6], more than 100 µM. In addition, the TGI in [7], in test [8], in [9] and in [10] was more than 100 µM throughout.

As to `CC1(C)N=C(N)N=C(N)N1c1ccc(Cl)c(Cl)c1`, the GI50 in [1] is 11.2 µM; in test [2], 0.453 µM; in test [3], 0.0566 µM; in test [4], 12.5 µM; in test [5], 0.072 µM; in [6], 0.547 µM. For the same compound, the GI50 was 1 µM in test [7], 3.39 µM in [9] and 0.356 µM in test [10]. In addition, the TGI in [1], in test [2], in test [3], in test [4], in test [5] and in [6] was more than 100 µM in each case. For the same compound, the TGI is more than 100 µM in test [7], more than 100 µM in test [8], more than 52.3 µM in test [9] and more than 100 µM in [10].

As for `O=C(CC1C(=O)Nc2ccccc2S1(=O)=O)Nc1cccc(Cl)c1` (stereo not given), the TGI in [1] was 39.1 µM; in test [2] it was 37.9 µM; in [3] it was 30.1 µM; in test [4], 41.2 µM; in [5] it was 29.1 µM; in test [6] it was 35.8 µM. For the same compound, the TGI in test [7] came out at 46.8 µM; in test [8] it was 24.1 µM; in [9], 47.2 µM; in test [10] it was 33.4 µM.

As for `Cc1cc2c(=O)[nH]c(N)nc2nc1C`, the TGI in test [1], in test [2], in [3], in test [4], in test [5] and in [6] was more than 100 µM throughout. Further, the TGI in [7], in test [8], in [9] and in [10] was more than 100 µM throughout.

Take `CN1C(=O)C(=CN(C)c2ccccc2)C(=O)N(C)C1=O`: the TGI in test [1], in test [4], in test [5], in [6], in [7] and in [8] was more than 100 µM throughout. Moreover, the TGI in [9] and in test [10] was more than 100 µM throughout.

In the case of `Cc1cc2c(cc1C)[n+](Cc1ccc3ccccc3n1)cn2Cc1ccc2ccccc2n1`, the GI50 in test [1] is 1.04 µM; in test [2], 0.736 µM; in [3] it was 1.27 µM; in test [5], 1.54 µM; in test [6] it was 0.471 µM; in test [7] it was 0.91 µM. Moreover, the GI50 in test [8] was 0.301 µM; in [9] it was 1.83 µM; in test [10], 0.57 µM. For the same compound, the TGI came to 2.36 µM in test [1]; 3.53 µM in [2]; 3.02 µM in [3]; 3.03 µM in test [5]; 1.59 µM in test [6]; 2.36 µM in [7]. Also, the results for the TGI in [8], in test [9] and in test [10] were 1.62 µM, 12.8 µM and 2.21 µM, respectively.

Regarding `O=C1CCC2(c3ccccc3)Nc3ccc(Cl)cc3N12` (stereo not given), the TGI in [1], in test [2], in test [3], in test [4], in test [5] and in test [6] was more than 100 µM in each case. Moreover, the TGI in test [8], in [9] and in [10] was more than 100 µM throughout.

For `CNCCCn1c2c(c3ccc(F)cc3c1=O)C(=O)c1cc(OC)cnc1-2`, the GI50 was 0.369 µM in test [1]; 0.312 µM in test [2]; 0.379 µM in [3]; 0.195 µM in test [5]; 0.307 µM in test [6]; 0.216 µM in test [7]. The GI50 was 0.203 µM in test [8], 0.255 µM in test [9] and 0.32 µM in test [10]. Besides, the TGI in test [1] came out at 1.61 µM; in test [2], 1.97 µM; in test [3] it was 3.55 µM; in test [5], 0.658 µM; in test [6] it was 1.08 µM; in test [7], 1.78 µM. Besides, the TGI worked out at 0.912 µM in test [8], 10.6 µM in [9] and 4.11 µM in [10].

Regarding `CC(C)(C)OC(=O)NCCCCCCCCCCn1c2c(c3ccccc3c1=O)C(=O)c1ccccc1-2`, the GI50 in [1] was 26.2 µM; in test [2], 34.2 µM; in test [3], 21.9 µM; in test [4] it was 27.9 µM; in [5], 20.2 µM; in [6] it was more than 100 µM. Moreover, the GI50 in [7] is 44.1 µM; in test [8], 79.7 µM; in [9], 20 µM. Besides, the TGI in test [1] was 66 µM; in [2] it was more than 100 µM; in test [3] it was more than 100 µM; in test [4] it was more than 100 µM; in [5], more than 100 µM; in test [6] it was more than 100 µM. Also, the TGI in [7], in test [8] and in test [9] was more than 100 µM throughout.

For `COc1ccc2[nH]c(O)c(/C=c3/ccc4c(c3)N=C(c3ccc(F)cc3)N=4)c2c1`, the GI50 in test [1] is 1.46 µM; in [2], 3.14 µM; in test [3] it was 3.76 µM; in test [4], 7.12 µM; in [5], 1.69 µM; in test [7] it was 9.47 µM. Further, the GI50 in [8] is 3.01 µM; in test [9], 4.14 µM; in [10] it was 3.27 µM. In addition, the TGI in test [1] was 4.28 µM; in test [2], 28.1 µM; in test [3] it was 22.7 µM; in [4] it was more than 100 µM; in test [5], 3.26 µM; in test [7] it was more than 100 µM. Also, the figures for the TGI in test [8], in test [9] and in test [10] were more than 100 µM, more than 100 µM and 17.9 µM, respectively.

On to `CCOP(=O)(CC(=O)C1=C(O)C(CCCCNC(=O)OC(C)(C)C)N(Cc2ccccc2)C1=O)OCC` (stereo not given), for which the TGI in test [1], in test [2], in [3], in [4], in test [5] and in [6] was more than 100 µM throughout. Moreover, the TGI in [8], in test [9] and in test [10] was more than 100 µM each time.

For the origin of these results see PubChem BioAssay (NCI).
